Like-named read-outs stand apart in the source and are kept apart here.
Tests used:
[1] = target: eDHFR (Escherichia coli, UniProt P0ABQ4); format: binding; settings: data not shown
[2] = target: eDHFR-HA-GFP (Escherichia coli, UniProt P0ABQ4)
Protocol: FIG. 6 depicts degradation of eDHFR-HA in cell lysates and degradation of eDHFR fusion proteins in HeLa cells. (A) Degradation of eDHFR in HeLa cells lysates; (B) quantification of panel (A); (C) Global protein stability (GPS) assay. Cells co-express red fluorescent protein (RFP) and DHFR-HA-GFP from a bicistronic construct. Red and green fluorescence was measured by flow cytometry.
Protein degradation in whole cells was also assessed. eDHFR-HA-GFP was co-expressed with Discosoma sp. red fluorescent protein (RFP) in a bicistronic construct under control of a CMV promoter, with DHFR-HA-GFP translation occurring at the internal ribosome binding site. Thus a single mRNA is responsible for the production of both RFP and DHFR-HA-GFP, so that similar ratios of both proteins should be produced in all transfected cells. Changes in the relative intensities of red and green fluorescence are measured by flow cytometry, providing a facile and quantitative measure of the degradation of DHFR-HA-GFP in living cells and real time.
Cells were grown to 90% confluence in Dulbecco's Modified Minimal Essential Medium supplemented with 10% fetal bovine serum, 1×L-glutamine with no antibiotic in a 6 well plate. At this point the cells were serum starved, and then transfected using […] plasmid (expression driven by the cytomegalovirus promoter; gene coding for enhanced green fluorescent protein fused to the C-terminus of E. coli dihydrofolate reductase): 2 μL Transfectin™ (Biorad) per well. 48 hours after transfection, media was once again aspirated, and fresh serum free media was added. Cycloheximide (final concentration 100 μg/mL) was then added to the cells and after 5 minutes, 30 μM inhibitor was added. At each time point (45 minutes), media was aspirated, cells were trypsinized, centrifuged and washed three times with phosphate buffered saline. Cell pellets were flash frozen in dry ice, and then stored indefinitely at −80° C. The cells were thawed on ice, and then resuspended in lysis buffer (150 mM sucrose, 200 mM sodium phosphate, 43 mM MgCl2, pH 7.8, 0.1% triton X-100). Cells were lysed by two freeze/thaw cycles (−80° C. for 5 minutes, then 4° C. for 10 minutes). Lysate concentrations were normalized by dilution with lysis buffer such that they gave the same A595 when diluted into Bradford assay dye (Biorad).

[3] = test system: eDHFR-KRas D12 fusion protein; format: cell-based; settings: NIH3T3 cells, 16 μM
Protocol: FIG. 3 depicts the degradation of eDHFR-KRas D12 fusion protein. MSCV retrovirus was used to insert eDHFR-KRas D12 fusion gene into NIH3T3 cells. These cells were plated in a 48-well plate and treated with 16 μM of either trimethoprim or trimethoprim-Boc3Arg, and then harvested at the times indicated. eDHFR-Ras contained a FLAG tag at the amino terminus and was measured through western blot with anti-FLAG antibody. Tubulin was used as a loading control.

[4] = target: T1, Escherichia coli dihydrofolate reductase (Escherichia coli, UniProt P0ABQ4); assay: Degradation of pre-inhibited eDHFR in cell lysates (Western blot); format: biochemical
T1 construct: (His)6 (N); made in house; host or cells: Escherichia coli (pET28a vector)

[5] = test system: HeLa cells; assay: Cytotoxicity and apoptosis (trypan blue staining, PARP cleavage); format: cell-based; settings: concentrations up to 135 μM
[6] = target: T2, eDHFR-HA (Escherichia coli, UniProt P0ABQ4); assay: Degradation by purified 20S proteasome / immunoproteasome; format: biochemical
T2 construct: (His)6 (N); made in house; host or cells: Escherichia coli (pET28a vector)
Protocol: The protein was pre-inhibited with 1 mM inhibitor by incubation at 30° C. for 20 minutes. This mixture was added to the assay mixture (in 50 mM Hepes, pH 8.0, 250 mM NaCl, 1 mM DTT) such that the final concentration of protein was 90 nM. The concentration of proteasome was 6 nM. The temperature of assay was 37° C. Total assay volume was 55 μL. 15 μL aliquots were extracted at various time points and immediately placed into 6 μL of 5× loading buffer and boiled for 5 minutes. These were stored at −80° C. after flash freezing on dry ice and thawed by boiling for 2 minutes. The data was analyzed by Western blot as described in Example 2.

COc1cc(Cc2cnc(N)nc2N)cc(OC)c1OCC(=O)NCCCCCCNC(=O)C(CCCNC(=NC(=O)OC(C)(C)C)NC(=O)OC(C)(C)C)NC(=O)OC(C)(C)C (stereo not drawn) [TMP-Boc3Arg, N-(6-(2-(4-((2,4-diaminopyrimidin-5-yl)methyl)-2,6-dimethoxyphenoxy)acetamido)hexyl)-5-(2,3-di-t-butoxycarbonylguanidino)-2-(t-butoxycarbonylamino)pentanamide]
increase of eDHFR melting point / stability (relative to TMP) [1]: smaller increase | decrease of eDHFR-HA-GFP ([2]; 80 μM, 5 hours, GPS assay, anti-HA and anti-GFP blotting): 40% | Change in GFP:RFP ratio as function of time ([2]; GPS assay, transfected HeLa cells, flow cytometry): time-dependent decrease | Cell permeability ([2]; inferred from whole-cell degradation): cell permeable | Degradation of eDHFR-HA-GFP in whole cells ([2]; whole cell assays): promotes the degradation | Degradation of K-Ras-eDHFR fusion protein [3]: can induce the degradation | Degradation of K-Ras-eDHFR fusion protein ([3]; listed as trimethoprim-tag): is degraded | Degradation of target protein (eDHFR fused to GFP) ([4]; FIG. 6, noncovalent ligand): induced the degradation | Degradation of eDHFR in cell lysate assays ([4]; cell lysate): promotes the degradation | Cytotoxicity / induction of apoptosis [5]: did not display cytotoxicity or induce apoptosis | Degradation using purified immune proteasome ([6]; 20S immunoproteasome): promotes the degradation | Degradation using purified 20S proteasome ([6]; purified 20S proteasome, no ATP added): promotes the degradation

From patent US9765019B2, “Small-molecule-targeted protein degradation” (Brandeis University, priority 2011, dated 2017)
